The values below come from US20140128733A1, “SYSTEMS AND METHODS FOR HEMODYNAMIC DETECTION OF CIRCULATORY ANOMALIES” (Cardiox Corporation, priority 2008, published 2014).

The structures appear in SMILES notation. Where a name gives a salt, the structure may show the parent alone.

The nature of series [1]: Excitation and fluorescence signal attenuation through tissue versus depth of artery (FIG. 2). Type of series: physicochemical. As to conditions: FIG. 2 curve 38. The source says:
(§1) Looking to the ICG dye spectrum, an excitation curve is shown at 34, having a peak excitation wavelength at about 785 nanometers. Correspondingly, the fluorescence emission from excitation at curve 34 is represented at curve 36 with a peak emission wavelength of about 830 nanometers. Directed across FIG. 2 is a curve 38 representing the level of constant signal attenuation or absorption of about 37% resulting from passage of signal through tissue. Note that if a blood vessel is about one millimeter beneath the surface of skin, the system would perform at about 37% of the original intensity of the excitation signal and fluorescence signal for the case of ICG dye indicator. In contrast, a 37% decrease in excitation and emission signal level would result for the fluorescein dye indicator at a tissue thickness of only 0.25 mm. Since the blood vessels being targeted are at least 1 mm below the skin surface, the attenuation and associated signal loss would be much larger. Therefore, ICG dye is the preferred indicator.
Turning again to the ICG dye spectrum, note that the excitation signal 34 for ICG intersects curve 38 at a depth allowing for readily reaching blood vessels, for example within the pinna (e.g., scaphoid fossa) of the ear. Accordingly, ICG dye is usable as a circulatory tracking agent when detecting through skin, and ICG dye was the indicator elected for subsequent study.

Series [2] in a line: Excitation and fluorescence emission wavelengths of the dyes (FIG. 2). Format: physicochemical.
Excerpt: Looking to FIG. 2 in this regard, the excitation signal for fluorescein dye is represented at curve 30 which is an excitation signal at less than about 500 nanometers (nm). A resultant fluorescence emission from the excitation at 30 is shown at curve 32, at a wavelength of about 525 nm.
as §1
When an ICG indicator within the bloodstream reaches the site of irradiation with 785 nm (laser) light, the fluorescent moiety within the ICG indicator is excited as described in connection with FIG. 2 to an elevated energy state for a brief period. As the excited moiety returns to its normal energy state, it emits light at a longer wavelength (viz., 830 nm) and the difference between the excitation wavelength (viz., 785 nm) and the fluorescence emission wavelength (viz., 830 nm) is known as the Stokes Shift. This Stokes Shift of nominally 45 nm allows the fluoresce emission to be extracted by using a interferential or other type of optical filter to reflect or otherwise attenuate all but the wavelength band of interest (viz., 820 to 840 nm).

Regarding `CC1(C)C(/C=C/C=C/C=C/C=C2\N(CCCCS(=O)(=O)O)c3ccc4ccccc4c3C2(C)C)=[N+](CCCCS(=O)(=O)[O-])c2ccc3ccccc3c21` [ICG, 2-[7-[1,1-dimethyl-3-(4-sulfobutyl)benz[e]indolin-2-ylidene]-1,3,5-heptatrienyl]-1,1-dimethyl-3-(4-sulfobutyl)-1H-benz[e]indolium hydroxide, inner salt, sodium salt], the “tissue depth at constant signal attenuation of about 37%” value in series [1] is reported as “about one”. Moreover, in series [2] (FIG. 2), the excitation wavelength result was “about 785 nm” and the fluorescence emission wavelength result is “about 830 nm”. The “Stokes Shift” value in series [2] (difference between excitation and fluorescence emission wavelength) was roughly 45 nm.
